# Results: a melting point compilation (Tetko et al.; mined from patent text by program, amines drawn as free bases though some values may be those of a salt)
row,SMILES,melting point [°C]
1,COC1(c2ccc(Sc3ccc4c(c3)CCC(=S)N4C)s2)CCOCC1,100 to 102
2,Nc1ccc(C(=O)c2ncco2)c(Cl)c1,92 to 94
3,CC(C)NC(=O)C[C@@H]1CCCNc2ccccc21,91 to 92
4,OC(CCN1CC=C(c2ccc(Cl)cc2)CC1)c1ccc(Cl)cc1Cl (stereo not given),96 to 98
5,CC(C)(C)NC(=O)[C@@H]1C[C@H](F)CN1C(=O)[C@@H](O)[C@H](Cc1ccccc1)NC(=O)[C@H](CC(N)=O)NC(=O)OCc1ccccc1,95 to 100
6,C=Cc1ccccc1OC(C)C(=O)N1CCCC1 (stereo not given),85 to 86
7,CCC(=O)c1ccc(O)c(CNC(=O)CCl)c1,143 to 145
8,COC1(OC)SC(c2nccs2)=C(C)NC1=O,127 to 128
9,COc1ccc(S(=O)(=O)N2C(=O)[C@@](c3ccccc3OC)(N3C[C@H](OC(=O)CCC(=O)O)C[C@H]3C(=O)N(C)C)c3cc(Cl)ccc32)c(OC)c1,225 to 228
10,C=C(CN1c2ccccc2Sc2ccc(Cl)cc21)c1ccc(C(=O)Nc2ccccc2N)cc1,126 to 128
11,N#CCC(CC#N)c1cccnc1,60 to 61
12,O=C(O)c1cccnc1N1CCc2ccccc2C1,150 to 152
13,CCOC(=O)c1ccc(C=C(C)c2ccc3c(c2)SCCC3(C)C)cc1,64 to 65
14,Cn1cncc1C(C)(c1ccc(Cl)cc1)c1ccc2c(c1)c(-c1cccc(Cl)c1)cc(=O)n2C (stereo not given),204
15,N#CCCOc1ccccc1OCCC#N,124 to 125
16,Cc1noc(C)c1COCCn1cnc2c(N)nc3ccccc3c21,213 to 215
17,CCOC(=O)c1ncn2c1CN(Cc1ccc(OC)cc1OC)C(=O)c1cc(F)ccc1-2,159 to 160
18,Cc1ccc(OC(=O)Cl)cc1,60 to 61.5
19,COC(=O)c1cc2c(N3CCN(CCC(C(=O)N4CCCCCC4)c4ccccc4)CC3)cccc2[nH]1 (stereo not given),152 to 168
20,CN(C)C(=N)CSc1nnc(S)s1,95 to 97

row,SMILES,melting point [°C]
1,CN(C)C(=O)c1ccc(Cl)c(C#N)c1,193
2,N#CC1=C(C2=CCNCC2)Nc2n[nH]cc2C1c1cccc(C#N)c1Br (stereo not given),226
3,OCc1ccc(Cc2ccccc2CO)cc1,102
4,COC(=O)CCc1ncc2oc(C(=O)OC)c(O)c2c1C(=O)OC,117 to 118
5,COc1cc2ccnc(N3CCN(c4ccc5c(c4)CCC(=O)N5)CC3)c2cc1OC,235 to 240
6,COc1cc(-c2ccc(NN)nn2)ccc1OC(F)F,154
7,O=S(CCCc1nc(-c2ccc(F)cc2)c(-c2ccncc2)[nH]1)c1ccccc1 (stereo not given),146 to 148
8,CCNC(=S)NC1CC(C)(C)NC(C)(C)C1,134
9,CCc1cn2ccccc2c1S(=O)(=O)c1ccc(OS(=O)(=O)c2ccc(C)cc2)cc1,190
10,"O=C(O)CCCCC1SCc2[nH]c(=O)[nH]c21 (single isomer, unassigned; (-))",189 to 199
11,CCSNc1c(C#N)c(C)nn1-c1c(Cl)cc(C(F)(F)F)cc1Cl,160 to 161
12,N#Cc1c(Cl)c2cc(F)ccc2n(Cc2ccc(F)cc2)c1=O,236
13,O=C1NCC(c2cn3c4c(cccc24)CCC3)=C1c1c[nH]c2ccccc12,260 to 262
14,Cc1nc2n(c(=O)c1CCN1CCN(c3noc4c(C)cccc34)CC1)CCCS2,170
15,Cc1ccc([N+](=O)[O-])cc1Nc1cc(-c2cccnc2)ccn1,170 to 173
16,CCn1cc(CN(C(=O)C2CCc3c(O)cccc32)c2ccc(C(C)C)cc2)cn1 (stereo not given),205 to 206
17,CC(=O)N1CCC(Nc2nc3ccccc3n2Cc2ccc(CO)o2)CC1,214
18,CC1Nc2ccc(-c3ccc(C#N)[nH]3)cc2C(C)(C)O1 (stereo not given),201 to 202
19,N#Cc1ccc(C2C3=C(CCCC3)NC3=C2C(=O)CCC3)cc1C(F)(F)F (stereo not given),210 to 212
20,O=c1[nH]c2ncc(-c3ccc(-c4nnc[nH]4)cc3)nc2n1CCN1CCCCC1,194 to 197
